What was measured:
Test in all cases: relative viability (nuclei count vs DMSO), 5 days (fraction); higher = more cells survive
[1] = compound: Cn1cncc1[C@@](N)(c1ccc(Cl)cc1)c1ccc2c(c1)c(-c1cccc(Cl)c1)cc(=O)n2C [Tipifarnib] + CS(=O)(=O)CCNCc1ccc(-c2ccc3ncnc(Nc4ccc(OCc5cccc(F)c5)c(Cl)c4)c3c2)o1 [Lapatinib] (partner 2 µM)
Method in brief: (§1)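 Relative viability was taken as the ratio of nuclei in treated wells to nuclei in vehicle wells. Lung cancer cell lines in 1536-well plates received compounds by pin tool one day after seeding, either one drug alone or a fixed anchor-drug dose plus five library-drug doses (not always all listed) in √10 steps. Nuclei were counted on 4× images after 5 days of treatment, and values are medians of duplicate plates.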

[2] = compound: Cn1cncc1[C@@](N)(c1ccc(Cl)cc1)c1ccc2c(c1)c(-c1cccc(Cl)c1)cc(=O)n2C [Tipifarnib] + C[C@]1(O)C[C@@H](c2nc(-c3ccc4ccc(-c5ccccc5)nc4c3)c3c(N)nccn32)C1 [Linsitinib] (partner 1 µM)
Method in brief: as §1

[3] = compound: Cn1cncc1[C@@](N)(c1ccc(Cl)cc1)c1ccc2c(c1)c(-c1cccc(Cl)c1)cc(=O)n2C [Tipifarnib] + COc1cccc2cc(-c3nc([C@H]4CC[C@H](C(=O)O)CC4)n4ncnc(N)c34)[nH]c12 [OSI-027] (partner 0.5 µM)
Method in brief: as §1

[4] = compound: Cn1cncc1[C@@](N)(c1ccc(Cl)cc1)c1ccc2c(c1)c(-c1cccc(Cl)c1)cc(=O)n2C [Tipifarnib] + CCNC(=O)c1noc(-c2cc(C(C)C)c(O)cc2O)c1-c1ccc(CN2CCOCC2)cc1 [Luminespib] (partner 0.01 µM)
Method in brief: as §1

Cell Line | relative viability ([1]; first compound 0.01 µM) | relative viability ([1]; first compound 0.03162 µM) | relative viability ([1]; first compound 0.1 µM) | relative viability ([1]; first compound 0.3162 µM) | relative viability ([1]; first compound 1 µM) | relative viability ([2]; first compound 0.01 µM) | relative viability ([2]; first compound 0.03162 µM) | relative viability ([2]; first compound 0.1 µM) | relative viability ([2]; first compound 0.3162 µM) | relative viability ([2]; first compound 1 µM) | relative viability ([3]; first compound 0.01 µM) | relative viability ([3]; first compound 0.03162 µM) | relative viability ([3]; first compound 0.1 µM) | relative viability ([3]; first compound 0.3162 µM) | relative viability ([3]; first compound 1 µM) | relative viability ([4]; first compound 0.01 µM) | relative viability ([4]; first compound 0.03162 µM) | relative viability ([4]; first compound 0.1 µM) | relative viability ([4]; first compound 0.3162 µM) | relative viability ([4]; first compound 1 µM)
HCC-44 | 0.876 | 0.898 | 0.853 | 0.767 | 0.494 | 0.563 | 0.615 | 0.557 | 0.493 | 0.521 | 0.736 | 0.423 | 0.383 | 0.329 | 0.289 | 0.98 | 0.93 | 0.899 | 0.839 | 0.855
PC-14 | 0.346 | 0.327 | 0.242 | 0.226 | 0.15 | 0.98 | 0.965 | 0.713 | 0.432 | 0.437 | 0.795 | 0.29 | 0.216 | 0.157 | 0.124 | 0.221 | 0.2 | 0.149 | 0.132 | 0.131
HOP-62 | 0.841 | 0.301 | 0.454 | 0.244 | 0.265 | 0.916 | 0.64 | 0.38 | 0.304 | 0.301 | 0.639 | 0.382 | 0.33 | 0.263 | 0.317 | 0.653 | 0.611 | 0.401 | 0.374 | 0.349
NCI-H358 | 0.455 | 0.444 | 0.443 | 0.424 | 0.352 | 0.782 | 0.691 | 0.664 | 0.512 | 0.48 | 0.803 | 0.788 | 0.429 | 0.385 | 0.178 | 0.246 | 0.297 | 0.212 | 0.212 | 0.214
SK-MES-1 | 0.466 | 0.455 | 0.481 | 0.411 | 0.386 | 1.08 | 0.917 | 0.985 | 0.792 | 0.809 | 0.642 | 0.453 | 0.354 | 0.265 | 0.332 | 0.679 | 0.606 | 0.675 | 0.373 | 0.348
NCI-H1666 | 0.666 | 0.61 | 0.591 | 0.474 | 0.388 | 0.719 | 0.704 | 0.623 | 0.549 | 0.573 | 0.73 | 0.737 | 0.585 | 0.566 | 0.602 | 1 | 0.92 | 0.94 | 0.842 | 0.806
NCI-H1355 | 0.999 | 0.871 | 0.746 | 0.67 | 0.516 | 0.861 | 0.896 | 0.649 | 0.541 | 0.69 | 0.37 | 0.344 | 0.295 | 0.262 | 0.26 | 0.76 | 0.61 | 0.525 | 0.532 | 0.433
HCC-827 | 0.184 | 0.208 | 0.152 | 0.186 | 0.172 | 0.828 | 0.918 | 0.805 | 0.639 | 0.6 | 0.901 | 0.809 | 0.687 | 0.435 | 0.388 | 1.06 | 0.471 | 0.279 | 0.365 | 0.256
HARA | 0.737 | 0.682 | 0.735 | 0.664 | 0.332 | 1.08 | 0.925 | 0.956 | 0.94 | 0.87 | 0.618 | 0.408 | 0.298 | 0.137 | 0.147 | 0.694 | 0.682 | 0.526 | 0.522 | 0.221
NCI-H322M | 0.637 | 0.662 | 0.622 | 0.688 | 0.505 | 0.934 | 0.921 | 0.96 | 0.672 | 0.853 | 0.5 | 0.492 | 0.513 | 0.415 | 0.445 | 0.854 | 0.85 | 0.676 | 0.665 | 0.554
NCI-H2347 | 0.827 | 0.727 | 0.642 | 0.582 | 0.642 | 0.973 | 0.739 | 0.649 | 0.693 | 0.735 | 0.479 | 0.368 | 0.411 | 0.259 | 0.334 | 0.671 | 0.298 | 0.401 | 0.386 | 0.28
NCI-H1975 | 1.01 | 0.933 | 0.933 | 0.631 | 0.65 | 1.07 | 1.16 | 0.876 | 0.614 | 0.714 | 0.788 | 0.701 | 0.567 | 0.318 | 0.31 | 0.235 | 0.282 | 0.163 | 0.172 | 0.106
UMC-11 | 0.84 | 0.605 | 0.595 | 0.475 | 0.281 | 0.86 | 0.632 | 0.563 | 0.523 | 0.577 | 0.432 | 0.359 | 0.348 | 0.301 | 0.343 | 0.99 | 0.845 | 0.711 | 0.665 | 0.621
ABC-1 | 1.37 | 1.39 | 1.58 | 1.39 | 1.59 | 0.827 | – | 0.76 | 0.665 | 0.554 | 0.554 | – | 0.414 | 0.32 | 0.267 | 0.914 | – | 0.321 | 0.347 | 0.278
